Assay results published in patent US20150344466A1 (SUMITOMO CHEMICAL COMPANY, LIMITED, priority 2013, published 2015).

Experiments:
Format in all cases: in vivo
Blattella germanica [1] = assay: Knockdown spray test on Blattella germanica, 2.0% w/v oil formulation (Test Example 1); conditions: topical, 0.25 h, active ingredient 2.0% w/v, 1.5 ml sprayed, within 15 minutes, read-out: knockdown rate of the test insects within 15 minutes
In short: (§1)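 Ten German cockroaches (5 males, 5 females) in a mesh-bottomed, butter-walled container were sprayed with 1.5 ml test solution from 60 cm at 0.42 kg/cm^2 inside a chamber.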

Musca domestica [2] = assay: Knockdown spray test on adult Musca domestica (Test Example 3); conditions: topical, 0.25 h, active ingredient 2.0% w/v, 0.5 ml sprayed, within 15 minutes, read-out: knockdown rate of the test insects within 15 minutes
In short: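 Ten adult house flies (5 male, 5 female) in a gauze-covered cup sprayed with 0.5 ml test solution from 30 cm at 0.9 kg/cm^2 inside a chamber, then removed. Knocked-down flies counted at 2, 5 and 15 min and expressed as % of insects tested.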

Culex pipiens pallens [3] = assay: Knockdown spray test on adult Culex pipiens pallens (Test Example 4); conditions: topical, 0.25 h, active ingredient 0.1% w/v, 0.5 ml sprayed, within 15 minutes, read-out: knockdown rate of the test insects within 15 minutes
In short: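 Ten adult mosquitoes in a gauze-covered cup inside a 46×46×70 cm chamber were sprayed with 0.5 ml of test solution from 30 cm at 0.4 kg/cm^2. The cup was removed at once, and knocked-down insects were counted at 2, 5 and 15 min; knockdown rate (%) = knocked-down/tested ×100.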

Culex pipiens pallens [4] = assay: Larvicidal test on Culex pipiens pallens, eight days (Test Example 7); conditions: 192 h; last-instar larvae of Culex pipiens pallens; 3.5 ppm in water; eight days later; read-out: death rate
Experimental: (§2) 20 last-instar larvae of Culex pipiens pallens were released into a liquid to which 0.7 ml of the above test drug solution was added to 100 ml of ion-exchanged water (a concentration of the active ingredient of 3.5 ppm). Eight days later, the life and death of the Culex pipiens pallens was examined, and the death rate was calculated. The death rate was calculated by the following equation.
(§3) Death rate (%)=(Number of dead insects/Number of tested insects)×100

Spodoptera litura = assay: Foliar spray test on Spodoptera litura on cabbage (Test Example 11); conditions: 96 h, fourth instar larvae of Spodoptera litura on cabbage, 500 ppm spray 20 ml/cup, after 4 days, read-out: controlling value
Experimental: On the other hand, cabbage was planted in a polyethylene cup, and grown until the third-fourth true leaf was spread. The test spray solution was sprayed to the cabbage at a ratio of 20 ml/cup. After the drug solution sprayed orn the cabbage was dried, 10 fourth instar larvae of Spodoptera litura were allowed to parasitize the cabbage. After 4 days, the number of surviving Spodoptera litura on the cabbage leaves was examined, and the controlling value was calculated according to the following equation. Controlling value (%)={1−(Cb×Tai)/([…])}×100 In the equation, the symbols represent as follows. Cb: the number of insects in a non-treated section before treatment Cai: the number of insects in a non-treated section on observation Tb: the number of insects in a treated section before treatment Tai: the number of insects in a treated section on observation

Blattella germanica [5] = assay: Knockdown spray test on Blattella germanica, 0.1% w/v oil formulation (Test Example 2); conditions: topical, 0.25 h, active ingredient 0.1% w/v, 1.5 ml sprayed, within 15 minutes, read-out: knockdown rate of the test insects within 15 minutes
In short: as §1

Musca domestica [6] = assay: Filter paper/sucrose bait death rate test on Musca domestica (Test Example 5); conditions: female imagoes of Musca domestica, 0.7 ml on filter paper, after 24 hours
In short: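 Filter paper in a 5.5 cm cup dosed with 0.7 ml test drug solution, with 30 mg sucrose as bait. Ten female adult houseflies released and cup sealed. Dead insects counted after 24 h; death rate (%) = dead/tested × 100.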

Plutella xylostella = assay: Foliar spray test on Plutella xylostella on cabbage (Test Example 10); conditions: 120 h, third instar larvae of Plutella xylostella on cabbage, 500 ppm spray 20 ml/cup, after five days, read-out: controlling value
In short: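 Cabbage at the third–fourth true-leaf stage sprayed with test solution at 20 ml/cup, dried, then infested with 10 third-instar larvae. Insects counted after five days; controlling value (%) calculated from treated and non-treated counts before treatment and at observation.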

Culex pipiens pallens [7] = assay: Larvicidal test on Culex pipiens pallens, one day (Test Example 6); conditions: 24 h; last-instar larvae of Culex pipiens pallens; 3.5 ppm in water; one day later; read-out: death rate
Experimental: Each of the formulations of Compounds of Present Invention (39), (63), (71), (72), (92), (93), (95), (106), (150), (171), (170), (181), (182), (183), (187), (188), (189), (190), (191), (192), (200), (201), (201), (234), (246), (290) and (299) obtained in Formulation Example 15 was diluted with water, so as to have a concentration of the active ingredient of 500 ppm, to prepare a test drug solution.
as §2, with “One day” for “Eight days”
as §3

O=C(NCC1CCOC1)c1cc(COCc2ccc3ccccc3c2)on1 (stereo not drawn) [(20), N-(tetrahydrofuran-3-ylmethyl)-5-(2-naphthylmethoxymethyl)isoxazole-3-carboxamide]
pest or weed control at 2 % strength (Blattella germanica [1]): ≥ 80%
pest or weed control at 2 % strength (Musca domestica [2]): ≥ 80%
pest or weed control at 0.1 % strength (Culex pipiens pallens [3]): ≥ 80%
pest or weed control at 3.5 ppm (Culex pipiens pallens [4]): ≥ 90%
pest or weed control at 500 ppm (Spodoptera litura): ≥ 80%

O=C(NCC1CCOCC1)c1cc(COCc2cccc(Cl)c2)on1 [(69), N-(tetrahydropyran-4-ylmethyl)-5-(3-chlorobenzyloxymethyl)isoxazole-3-carboxamide]
pest or weed control at 0.1 % strength (Blattella germanica [5]): ≥ 80%
pest or weed control at 0.1 % strength (Culex pipiens pallens [3]): ≥ 80%
pest or weed control at 500 ppm (Musca domestica [6]): ≥ 90%
pest or weed control at 500 ppm (Plutella xylostella): ≥ 90%
pest or weed control at 500 ppm (Spodoptera litura): ≥ 80%

O=C(NCC1CCOCC1)c1cc(COCc2ccc(Cl)cc2)on1 [(71), N-(tetrahydropyran-4-ylmethyl)-5-(4-chlorobenzyloxymethyl)isoxazole-3-carboxamide]
pest or weed control at 0.1 % strength (Culex pipiens pallens [3]): ≥ 80%
pest or weed control at 3.5 ppm (Culex pipiens pallens [7]): ≥ 90%
pest or weed control at 500 ppm (Plutella xylostella): ≥ 90%

O=C(NCC1CCOC1)c1cc(COCc2cccc(Br)c2)on1 (stereo not drawn) [(76), N-(tetrahydrofuran-3-ylmethyl)-5-[(3-bromobenzyl)oxymethyl]isoxazole-3-carboxamide]
pest or weed control at 0.1 % strength (Blattella germanica [5]): ≥ 80%
pest or weed control at 0.1 % strength (Culex pipiens pallens [3]): ≥ 80%
pest or weed control at 500 ppm (Musca domestica [6]): ≥ 90%
pest or weed control at 3.5 ppm (Culex pipiens pallens [4]): ≥ 90%
pest or weed control at 500 ppm (Plutella xylostella): ≥ 90%
pest or weed control at 500 ppm (Spodoptera litura): ≥ 80%

O=C(NCC1CCOCC1)c1cc(COCc2cccc(Br)c2)on1 [(77), N-(tetrahydropyran-4-ylmethyl)-5-(3-bromobenzyloxymethyl)isoxazole-3-carboxamide]
pest or weed control at 0.1 % strength (Blattella germanica [5]): ≥ 80%
pest or weed control at 0.1 % strength (Culex pipiens pallens [3]): ≥ 80%
pest or weed control at 3.5 ppm (Culex pipiens pallens [4]): ≥ 90%
pest or weed control at 500 ppm (Spodoptera litura): ≥ 80%

O=C(NCC1CCOCC1)c1cc(COCc2cccc(OC(F)(F)F)c2)on1 [(79)]
pest or weed control at 0.1 % strength (Blattella germanica [5]): ≥ 80%
pest or weed control at 0.1 % strength (Culex pipiens pallens [3]): ≥ 80%
pest or weed control at 500 ppm (Musca domestica [6]): ≥ 90%
pest or weed control at 500 ppm (Plutella xylostella): ≥ 90%
pest or weed control at 500 ppm (Spodoptera litura): ≥ 80%

O=C(NCC1CCOCC1)c1cc(COCc2ccc(Br)cc2)on1 [(92), N-(tetrahydropyran-4-ylmethyl)-5-(4-bromobenzyloxymethyl)isoxazole-3-carboxamide]
pest or weed control at 0.1 % strength (Blattella germanica [5]): ≥ 80%
pest or weed control at 0.1 % strength (Culex pipiens pallens [3]): ≥ 80%
pest or weed control at 3.5 ppm (Culex pipiens pallens [7]): ≥ 90%
pest or weed control at 3.5 ppm (Culex pipiens pallens [4]): ≥ 90%
pest or weed control at 500 ppm (Plutella xylostella): ≥ 90%

O=C(NCC1CCOC1)c1cc(COCc2ccc(SC(F)(F)F)cc2)on1 (stereo not drawn) [(95), N-(tetrahydrofuran-3-ylmethyl)-5-(4-trifluoromethylthiobenzyloxymethyl)isoxazole-3-carboxamide]
pest or weed control at 0.1 % strength (Culex pipiens pallens [3]): ≥ 80%
pest or weed control at 3.5 ppm (Culex pipiens pallens [7]): ≥ 90%
pest or weed control at 3.5 ppm (Culex pipiens pallens [4]): ≥ 90%

O=C(NCC1CCOCC1)c1cc(COc2ccc(Cl)cc2)on1 [(181), N-(tetrahydropyran-4-ylmethyl)-5-[(4-chlorophenoxy)methyl]isoxazole-3-carboxamide]
pest or weed control at 0.1 % strength (Culex pipiens pallens [3]): ≥ 80%
pest or weed control at 3.5 ppm (Culex pipiens pallens [7]): ≥ 90%
pest or weed control at 3.5 ppm (Culex pipiens pallens [4]): ≥ 90%

O=C(NCC1CCOC1)c1cc(COc2ccc(Cl)c(Cl)c2)on1 (stereo not drawn) [(182)]
pest or weed control at 0.1 % strength (Culex pipiens pallens [3]): ≥ 80%
pest or weed control at 3.5 ppm (Culex pipiens pallens [7]): ≥ 90%
pest or weed control at 3.5 ppm (Culex pipiens pallens [4]): ≥ 90%

O=C(NCC1CCOCC1)c1cc(COc2ccc(Br)cc2)on1 [(187), N-(tetrahydropyran-4-ylmethyl)-5-(4-bromophenoxymethyl)isoxazole-3-carboxamide]
pest or weed control at 0.1 % strength (Culex pipiens pallens [3]): ≥ 80%
pest or weed control at 3.5 ppm (Culex pipiens pallens [7]): ≥ 90%
pest or weed control at 3.5 ppm (Culex pipiens pallens [4]): ≥ 90%

O=C(NCC1CCOC1)c1cc(COc2ccc(C(F)(F)F)cc2)on1 (stereo not drawn) [(188), N-(tetrahydrofuran-3-ylmethyl)-5-(4-trifluorophenoxymethyl) isoxazole-3-carboxamide]
pest or weed control at 0.1 % strength (Culex pipiens pallens [3]): ≥ 80%
pest or weed control at 3.5 ppm (Culex pipiens pallens [7]): ≥ 90%
pest or weed control at 3.5 ppm (Culex pipiens pallens [4]): ≥ 90%
pest or weed control at 500 ppm (Plutella xylostella): ≥ 90%

O=C(NCC1CCOCC1)c1cc(COc2ccc(C(F)(F)F)cc2)on1 [(189), N-(tetrahydropyran-4-ylmethyl)-5-(4-trifluoromethylphenoxymethyl)isoxazole-3-carboxamide]
pest or weed control at 0.1 % strength (Culex pipiens pallens [3]): ≥ 80%
pest or weed control at 3.5 ppm (Culex pipiens pallens [7]): ≥ 90%
pest or weed control at 3.5 ppm (Culex pipiens pallens [4]): ≥ 90%

O=C(NCC1CCOC1)c1cc(COc2ccc(SC(F)(F)F)cc2)on1 (stereo not drawn) [(192), N-(tetrahydrofuran-3-ylmethyl)-5-(4-trifluoromethylthiophenoxymethyl)isoxazole-3-carboxamide]
pest or weed control at 0.1 % strength (Culex pipiens pallens [3]): ≥ 80%
pest or weed control at 3.5 ppm (Culex pipiens pallens [7]): ≥ 90%
pest or weed control at 3.5 ppm (Culex pipiens pallens [4]): ≥ 90%

O=C(NCC1CCOC1)c1cc(COc2cccc(C(F)(F)F)c2)on1 (stereo not drawn) [(198), N-(tetrahydrofuran-3-ylmethyl)-5-(3-trifluoromethylphenoxymethyl)isoxazole-3-carboxamide]
pest or weed control at 0.1 % strength (Blattella germanica [5]): ≥ 80%
pest or weed control at 0.1 % strength (Culex pipiens pallens [3]): ≥ 80%
pest or weed control at 3.5 ppm (Culex pipiens pallens [4]): ≥ 90%
pest or weed control at 500 ppm (Spodoptera litura): ≥ 80%

O=C(NCC1CCOC1)c1cc(COCc2ccc3ccccc3c2F)on1 (stereo not drawn) [(258), N-(tetrahydrofuran-3-ylmethyl)-5-(1-fluoro-2-naphthylmethoxymethyl)isoxazole-3-carboxamide]
pest or weed control at 0.1 % strength (Blattella germanica [5]): ≥ 80%
pest or weed control at 0.1 % strength (Culex pipiens pallens [3]): ≥ 80%
pest or weed control at 3.5 ppm (Culex pipiens pallens [4]): ≥ 90%
pest or weed control at 500 ppm (Plutella xylostella): ≥ 90%
pest or weed control at 500 ppm (Spodoptera litura): ≥ 80%

O=C(NCC1CCOC1)c1cc(COCc2ccc(Cl)cc2F)on1 (stereo not drawn) [(260), N-(tetrahydrofuran-3-ylmethyl)-5-(4-chloro-2-fluorobenzyloxymethyl)isoxazole-3-carboxamide]
pest or weed control at 0.1 % strength (Blattella germanica [5]): ≥ 80%
pest or weed control at 0.1 % strength (Culex pipiens pallens [3]): ≥ 80%
pest or weed control at 500 ppm (Musca domestica [6]): ≥ 90%
pest or weed control at 3.5 ppm (Culex pipiens pallens [4]): ≥ 90%
pest or weed control at 500 ppm (Spodoptera litura): ≥ 80%

O=C(NCC1CCOC1)c1cc(Cc2ccc3c(c2)OCO3)on1 (stereo not drawn) [(299), N-(tetrahydrofuran-3-ylmethyl)-5-(1,3-benzodioxolan-5-ylmethyl)isoxazole-3-carboxamide]
pest or weed control at 0.1 % strength (Culex pipiens pallens [3]): ≥ 80%
pest or weed control at 500 ppm (Musca domestica [6]): ≥ 90%
pest or weed control at 3.5 ppm (Culex pipiens pallens [7]): ≥ 90%

O=C(NCC1CCOC1)c1cc(Cc2ccc(F)c(F)c2)on1 (stereo not drawn) [(306), N-(tetrahydrofuran-3-ylmethyl)-5-(3,4-difluorobenzyl)isoxazole-3-carboxamide]
pest or weed control at 0.1 % strength (Blattella germanica [5]): ≥ 80%
pest or weed control at 0.1 % strength (Culex pipiens pallens [3]): ≥ 80%
pest or weed control at 500 ppm (Musca domestica [6]): ≥ 90%
pest or weed control at 500 ppm (Plutella xylostella): ≥ 90%
pest or weed control at 500 ppm (Spodoptera litura): ≥ 80%

O=C(NCC1CCOC1)c1cc(Cc2ccc(OC(F)(F)F)cc2)on1 (stereo not drawn) [(315), N-(tetrahydrofuran-3-ylmethyl)-5-(4-trifluoromethoxybenzyl) isoxazole-3-carboxamide]
pest or weed control at 0.1 % strength (Culex pipiens pallens [3]): ≥ 80%
pest or weed control at 500 ppm (Musca domestica [6]): ≥ 90%
pest or weed control at 3.5 ppm (Culex pipiens pallens [4]): ≥ 90%
pest or weed control at 500 ppm (Spodoptera litura): ≥ 80%
